The values that follow come from patent publication US11827665B2, “Process for the manufacture of (2S,3S,4S,5R,6S)-3,4,5-trihydroxy-6-(((4AR,10AR)-7-hydroxy-1-propyl-1,2,3,4,4A,5,10,10A-octahydrobenzo[g]quinolin-6-yl)oxy)tetrahydro-2H-pyran-2-carboxylic acid” (H. Lundbeck A/S, priority 2019, dated 2023).

Molecules are shown by their SMILES.

One data set deals with Parkinson's disease. Particulars: PD patients, intravenous (IV); cited from earlier work.
The conditions of data set [1]: man, oral dosing; cited from earlier work.
A further data set relates to rat locomotor activity. Description: Rat locomotor activity (hyperactivity) assay, open field, with PK/PD. The class given is in vivo, male CD rats. On the procedure:
Animals were dosed at t=60 minutes after a 60-minutes habituation period in test chambers, and activity was monitored for 350 minutes thereafter.
In total, 206 male CD rats (Charles River, Germany) weighing 200-250 grams (165-190 grams upon arrival) were used in the study. Animals were housed at a standard temperature (22±1° C.) and in a light-controlled environment (lights on from 7 am to […]) with ad libitum access to food and water. The experiment described below was performed in accordance with the standard operating procedures of Charles River Discovery Research Services Finland Ltd. and in accordance with the national Animal Experiment Board of Finland (Eläinkoelautakunta, ELLA) authority on animal testing.
The test device is a square Plexiglass-arena (measuring 40×40×40 cm), in which the movement paths of the rats are recorded by an activity monitor (Med. Associates Inc.). Before the test period is initiated, rats are habituated to their test cage for 60 minutes. Upon completion of habituation, animals were treated with either compound or vehicle and placed back into the open field apparatus. The main test parameter measured is ambulatory distance (recorded in 5-minute segments). Overall time of measurement after receiving initial treatment was 360 minutes. Total follow up period in the study was 420 min, including 60 min of habituation.

Data set [2] deals with Parkinson's Disease animal models. The settings on record: WO 2010/097092; cited from earlier work.
In data set [3] the test system is human hepatocytes. Description: Incubation with human hepatocytes. Type of data set: in vitro ADME. On the procedure: (§1) The cell concentration at incubation was 1×10^6 viable cells/mL. The incubations were performed in glass tubes at 37° C. with a total incubation volume of 3.5 mL and with duplicate incubations for each test item. The 3.5 mL of hepatocyte suspension was equilibrated for 10 minutes in a water bath set to 37° C. where after the incubations were initiated by adding 3.5 μL of a stock solution of the test item in DMSO (Dimethyl sulfoxide) and gently inverting the tubes. The final solvent concentration in the incubations was 0.1% DMSO. Samples of 600 μL were withdrawn from the incubations at the pre-determined time points of 0.25, 5, 15, 30 and 60 minutes after ensuring homogeneity of hepatocyte suspensions. The withdrawn volume was added to 1 mL Nunc cryotubes on wet ice containing 60 μL of ice-cold ascorbic acid (100 mg/mL) and 30 μL of ice cold 100 mM saccharic acid 1.4-lactone in 0.5 M citric acid. The tubes were mixed and 35 μL of a solution of ice cold 20% formic acid was added. The tubes were mixed thoroughly and stored at −80° C. awaiting analysis.

Data set [4] deals with rat hepatocytes. Nature of the data set: Incubation with rat hepatocytes. The class given is in vitro ADME. On the procedure:
as §1

A further data set concerns the target T1, human 5-HT2B receptor (Homo sapiens, UniProt P41595).
T1 construct: host or cells: CHO
Description: 5-HT2B agonist activity assay (IP1 production, HTRF). Type of data set: cell-based. On the procedure:
Evaluation of the agonist activity of compounds (I), (Ia), (Ib), (Ic) and (Id) at the human 5-HT2B receptor was performed by Eurofins/Cerep (France) measuring the compound effects on inositol monophosphate (IP1) production using the HTRF detection method. Briefly, the human 5-HT2B receptor was expressed in transfected CHO cells. The cells were suspended in a buffer containing 10 mM Hepes/NaOH (pH 7.4), 4.2 mM KCl, 146 mM NaCl, 1 mM CaCl2, 0.5 mM MgCl2, 5.5 mM glucose and 50 mM LiCl, then distributed in microplates at a density of 4100 cells/well and incubated for 30 minutes at 37° C. in the presence of buffer (basal control), test compound or reference agonist. For stimulated control measurement, separate assay wells contained 1 μM 5-HT. Following incubation, the cells were lysed and the fluorescence acceptor (fluorophen D2-labeled IP1) and fluorescence donor (anti-IP1 antibody labeled with europium cryptate) were added. After 60 minutes at room temperature, the fluorescence transfer was measured at lambda (Ex) 337 nm and lambda (Em) 620 and 665 nm using a microplate reader (Rubystar, BMG). The IP1 concentration was determined by dividing the signal measured at 665 nm by that measured at 620 nm (ratio). The results were expressed as a percent of the control response to 1 μM 5-HT. The standard reference agonist was 5-HT, which was tested in each experiment at several concentrations to generate a concentration-response curve from which its EC50 value is calculated as described above for dopamine functional assays.
Background: In TR-FRET formats the signal depends on donor and acceptor labels being close together.

A short description of data set [5]: PK experiments in rats: plasma compound (I) after oral dosing of prodrugs. Type of data set: in vivo, Han Wistar rats. The settings on record: Wistar rats, doses equal to 287 μg/kg of compound (I). On the procedure: Plasma was placed on water-ice following collection. Final storage at approximately −70° C.
Mobile phase B: Acetonitrile. […] Flow rate 0.5 mL/min.
The rats had unrestricted access to the diet.
Mobile phase B: Acetonitrile+0.2% formic acid. […] Flow rate 0.3 mL/min.
Dosing and blood sampling for compound (Ic): Han Wistar rats were supplied by Envigo, UK. […] The rats received a standard laboratory diet Teklad 2014C. The rats had unrestricted access to the diet. […] Rats were given 494 μg/kg (Ic).

Data set [6] relates to rat hepatocytes. Particulars: WO 2010/097092; cited from earlier work.
The subject of data set [7] is human hepatocytes. Particulars: WO 2010/097092; cited from earlier work.

T1 sequence (P41595 whole entry): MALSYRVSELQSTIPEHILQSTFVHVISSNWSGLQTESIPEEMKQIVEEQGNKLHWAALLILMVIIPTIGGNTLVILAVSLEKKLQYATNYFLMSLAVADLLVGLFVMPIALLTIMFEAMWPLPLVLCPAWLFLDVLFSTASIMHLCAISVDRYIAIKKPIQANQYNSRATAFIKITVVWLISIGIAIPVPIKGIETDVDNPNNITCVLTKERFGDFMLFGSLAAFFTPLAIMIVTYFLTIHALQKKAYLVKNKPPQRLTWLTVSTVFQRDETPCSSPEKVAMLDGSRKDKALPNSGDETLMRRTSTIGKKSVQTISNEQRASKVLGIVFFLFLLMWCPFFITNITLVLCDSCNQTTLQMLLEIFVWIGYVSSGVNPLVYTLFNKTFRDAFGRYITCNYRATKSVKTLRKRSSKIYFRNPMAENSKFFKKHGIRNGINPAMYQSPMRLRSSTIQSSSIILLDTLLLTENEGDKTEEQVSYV

Take `CCCc1cc2c(s1)CN[C@@H]1CCc3cc(OC(C)=O)c(OC(C)=O)cc3[C@@H]21` [adrogolide]: the Antiparkinson efficacy entry in the data set on Parkinson's disease is reported as “comparable to that of L-DOPA”. Also, the Oral bioavailability in [1] was about 4%.
In the case of `CN1CCc2cccc3c2[C@H]1Cc1ccc(O)c(O)c1-3` [apomorphine], the “Relationship between plasma concentration and hyperactivity” value in the data set on rat locomotor activity ((Id) 100 μg/kg p.o. (plasma compound (I)), apomorphine 3 mg/kg s.c. (plasma apomorphine)) was “correlation between plasma concentrations of apomorphine and hyperactive behaviour”. In addition, the “Locomotor activity: start of effect post-administration” value in the data set with rat locomotor activity ((Id) 10 to 300 μg/kg p.o., apomorphine 3 mg/kg s.c., pramipexole 0.3 mg/kg s.c.) is given as “immediate”.
`CCCN1CCC[C@@H]2Cc3c(ccc(O)c3O)C[C@H]21` [compound (I), (4aR,10aR)-1-Propyl-1,2,3,4,4a,5,10,10a-octahydro-benzo[g]quinoline-6,7-diol]: the “Efficacy in animal models relevant for Parkinson's Disease” value (“Efficacy in animal models relevant” for short) in data set [2] is “effective”. For the same molecule, the “Conjugation of compound (I) in human hepatocytes” value with human hepatocytes [3] is “conjugated in rat and human hepatocytes to sulfate and glucuronide derivatives”. The “Conjugation of compound (I) in rat hepatocytes” value with rat hepatocytes [4] is “conjugated in rat and human hepatocytes to sulfate and glucuronide derivatives”.
Turning to `CCCN1CCC[C@@H]2CC3=C(CCCC3=O)C[C@H]21` [compound (Ia)], the “5-HT2B agonist effect @ 30 μM” value at human 5-HT2B receptor (30 μM, percent of control response to 1 μM 5-HT) is listed as 58%. Moreover, the “Efficacy in animal models relevant” value in [2] was “effective”. Besides, the “Plasma profile of compound (I) after oral dosing of the prodrug (in words)” value (shortened to “Plasma profile of compound (I)”) in data set [5] was “early and high peak concentrations of compound (I)”.
On to `CCCN1CCC[C@@H]2Cc3c(ccc4c3OCO4)C[C@H]21` [compound (Ib)], for which the “5-HT2B receptor agonism (in words)” value at human 5-HT2B receptor (example 6 and Table 2) is “agonist of the 5-HT2B receptor”. For the same molecule, the “Efficacy in animal models relevant” value in data set [2] is “effective”. The “Conversion of (Ib) to compound (I) in rat hepatocytes” value in the data set on rat hepatocytes [6] is recorded as “demonstrated”. For the same molecule, the “Conversion of (Ib) to compound (I) in human hepatocytes” value in the data set with human hepatocytes [7] is given as “demonstrated”. For the same molecule, the “Plasma profile of compound (I)” value in [5] was “early and high peak concentrations of compound (I)”.
For `CCCN1CCC[C@@H]2Cc3c(ccc(OC(=O)C(C)(C)C)c3OC(=O)C(C)(C)C)C[C@H]21` [compound (Ic)], the “5-HT2B agonist effect @ 10 μM” value on human 5-HT2B receptor (10 μM, percent of control response to 1 μM 5-HT) is −5% @ 10 μM. Besides, the “Plasma profile of compound (I)” value in data set [5] is on record as “extremely low”.
